Data: US4551547A, “Biocidal 2-aryl-1, 3-cyclopentanedione enol ester compounds” (Union Carbide Corporation, priority 1983, dated 1985)
In brackets after ≈: the same amount, converted by molar mass.

Columns and labels:
[1] = test system: egg of the two-spotted mite; assay: Mite Ovicide Test (eggs); assay type: in vivo, Tetranychus urticae (Koch); design: key to Miticidal, Egg: A: Excellent Control; B: Partial Control; No Control; settings: for Miticidal, Egg: Table II, unhatched eggs after four days; for LC50: Tetranychus urticae, Table III, ppm required for a 50 percent kill of eggs, read-out: Miticidal LD50, Egg
Method: Suspensions of the test compounds were prepared by dissolving one gram of compound in 50 milliliters of acetone in which had been dissolved 0.1 gram (10 percent of the weight of compound) of an alkylphenoxyethanol sufactant, as an emulsifying or dispersing agent. The resulting solution was mixed into 160 milliliters of water to give roughly 200 milliliters of a suspension containing the compound in finely divided form. The thus prepared stock suspension contained 0.5 percent by weight of compound. The test concentrations employed in the tests described below were obtained by diluting the stock suspension with water. The test procedures were as follows: The test organism was the egg of the two-spotted mite (Tetranychus urticae (Koch)), as obtained from adults reared on […] bean plants under controlled conditions of 80±5° F. and 50±5 percent relative humidity. Heavily infested leaves from a stock culture were placed on the primary leaves of two bean plants six to eight inches in height growing in a two-and-a-half inch clay pot. Females were allowed to oviposit for a period of 48 hours and the leaves of the infested plants were dipped in a solution containing 800 parts of tetraethyl pyrophosphate per million parts of water in order to destroy the reproductory forms and thus prevent further egg laying. […] The plants were allowed to dry thoroughly. The test compounds were formulated by diluting the stock suspension with water to give a suspension containing varying amounts of test compound per million parts of final formulation. The potted plants (one pot per compound) were placed on a revolving turntable and sprayed with 100-110 milliliters of test compound formulation by use of a DeVilbis spray gun set at 40 spig. air pressure. This application which lasted 30 seconds, was sufficient to wet the plants to run-off. As a control, 100-110 milliliters of a water solution containing acetone and emulsifier in the same concentrations as the test compound formulation, but containing no test compound, were also sprayed on plants infested with eggs. The sprayed plants were held at 80±5° F. and 50±5 percent relative humidity for four days, after which a microscopic examination was made of unhatched (dead) and hatched (living) eggs. In these tests the pesticidal activity of the compounds against mites and mite eggs was rated as follows: Tests were conducted in accordance with the procedures given at pages 17 to 21 supra. The results are expressed in the same manner as used in Table II, except with respect to miticidal activity. For mite adult and mite egg comparison purposes, results are given in parts per million (ppm) required for a 50 percent kill of mites or eggs, respectively.

[2] = test system: Corn; assay: Post-emergent herbicidal test, corn; assay type: in vivo; design: key: 1: no perceptible injury; 2: intermediate degrees of injury; 3: intermediate degrees of injury; 4: intermediate degrees of injury; 5: the plant was dead; settings: 2500 parts per million, after ten days; for Post-emergent Herbicidal, Corn: Table II; for Post Emergent Herbicidal, Corn: Table III
Method: (§1) Suspensions of the test compounds were prepared by dissolving one gram of compound in 50 milliliters of acetone in which had been dissolved 0.1 gram (10 percent of the weight of compound) of an alkylphenoxyethanol sufactant, as an emulsifying or dispersing agent. The resulting solution was mixed into 160 milliliters of water to give roughly 200 milliliters of a suspension containing the compound in finely divided form. The thus prepared stock suspension contained 0.5 percent by weight of compound. The test concentrations employed in the tests described below were obtained by diluting the stock suspension with water. The test procedures were as follows:
(§2) Experiments were also conducted to determine the phytotoxicity of representative compositions with respect to healthy fresh plants. Solutions of the compounds were prepared as described above to provide a concentration of 2500 parts per million of the test compound. The test plants were sprayed in accordance with the procedure described above for the Mite Foliage Spray Test so as to deliver approximately 100 milliliters of test solutions to the leaves of each plant tested. The sprayed plants and controls were set aside for approximately one hour to allow the solutions to dry and were then placed in the greenhouse. After ten days the plants were visually inspected to determine the extent of foliage injury. A rating of 1 indicates no perceptible injury; 5 indicates the plant was dead and ratings of 2, 3 and 4 indicate intermediate degrees of injury based upon the number and extent to which leaves were injured.

[3] = test system: Tomato; assay: Post-emergent herbicidal test, tomato; assay type: in vivo; design: key: 1: no perceptible injury; 2: intermediate degrees of injury; 3: intermediate degrees of injury; 4: intermediate degrees of injury; 5: the plant was dead; settings: 2500 parts per million, after ten days; for Post-emergent Herbicidal, Tomato: Table II; for Post Emergent Herbicidal, Tomato: Table III
Method: as §1, §2

[4] = test system: Cotton; assay: Post-emergent herbicidal test, cotton; assay type: in vivo; design: key: 1: no perceptible injury; 2: intermediate degrees of injury; 3: intermediate degrees of injury; 4: intermediate degrees of injury; 5: the plant was dead; settings: 2500 parts per million, after ten days; for Post-emergent Herbicidal, Cotton: Table II; for Post Emergent Herbicidal, Cotton: Table III
Method: as §1, §2

[5] = test system: Perennial rye grass; assay: Preliminary herbicide seed germination test (pre-emergent), perennial rye grass; assay type: in vivo, Solium perenne; design: key: 5: no seedling emerged; 4: few seedlings emerged and/or very severe stunting; 3: moderate reduction in stand and/or moderate stunting.; 2: very slight reduction in stand and/or slight stunting; 1: no injury, seedlings appear no different with respect to stand or growth than untreated controls; settings: ten to twelve days after application
Method: as §1
(§3) The following seeds were used in this test:
Perennial rye grass--Solium perenne
(§4) Two […] mixtures were prepared as follows:
(§5) Each of the above mixtures was rolled separately in 5 gallon containers for approximately one-half hour on ball mill to insure uniform mixing of seeds and soil. For each compound four 3-inch pots were filled with soil to within 11/2 inches of top of pots. To two of these pots were added 70 cc. of Mixture I. To the remaining 2 pots were added 70 cc. of Mixture II. The seed-soil mixture was tamped firmly, and the pots were removed to the greenhouse and watered lightly. About 2 hours after planting, 25 milliliters of the test formulation were added to one pot containing Mixture I and one pot containing Mixture II. An equal volume of a water solution containing acetone and an emulsifier in the same concentration as the herbicidal mixture but without the candidate herbicide was also added to each of the soil-seed mixtures. These pots are used as check or control units. The test compounds were formulated by diluting the stock suspension with water to obtain the desired concentration of the compound in parts per million of the final formulation. Each compound was tested at the same concentration. […] Ratings were made according to the following designations: […]

[6] = test system: Crabgrass; assay: Preliminary herbicide seed germination test (pre-emergent), crabgrass; assay type: in vivo, Digitaria sanguinalis; design: key: 5: no seedling emerged; 4: few seedlings emerged and/or very severe stunting; 3: moderate reduction in stand and/or moderate stunting.; 2: very slight reduction in stand and/or slight stunting; 1: no injury, seedlings appear no different with respect to stand or growth than untreated controls; settings: ten to twelve days after application
Method: as §1, §3
Crabgrass--Digitaria sanguinalis
as §4, §5

[7] = test system: Red root pigweed (Amaranthus); assay: Preliminary herbicide seed germination test (pre-emergent), red root pigweed; assay type: in vivo, Amaranthus retroflexus; design: key: 5: no seedling emerged; 4: few seedlings emerged and/or very severe stunting; 3: moderate reduction in stand and/or moderate stunting.; 2: very slight reduction in stand and/or slight stunting; 1: no injury, seedlings appear no different with respect to stand or growth than untreated controls; settings: ten to twelve days after application
Method: as §1, §3
Red root pigweed--Amaranthus retroflexus
as §4, §5

[8] = test system: Mustard; assay: Preliminary herbicide seed germination test (pre-emergent), mustard; assay type: in vivo, Brassica pincea var. foliosa (Florida broadleaf); design: key: 5: no seedling emerged; 4: few seedlings emerged and/or very severe stunting; 3: moderate reduction in stand and/or moderate stunting.; 2: very slight reduction in stand and/or slight stunting; 1: no injury, seedlings appear no different with respect to stand or growth than untreated controls; settings: ten to twelve days after application
Method: as §1, §3
Mustard--Brassica pincea var. foliosa (Florida broadleaf)
as §4, §5

CCCCC(CC)C(=O)OC1=C(c2ccc(C)cc2C)C(=O)CC1 (stereo not shown) [Compound 9, 3-(2-ethylhexanoyloxy)-2-(2', 4'-dimethylphenyl)-2-cyclopentenone]
Miticidal, Egg [1]: A
Post-emergent Herbicidal, Corn [2]: 3
Post-emergent Herbicidal, Tomato [3]: 1
Post-emergent Herbicidal, Cotton [4]: 1
Pre-emergent Herbicidal, Rye ([5]; Table II): 5
Pre-emergent Herbicidal, Crabgrass ([6]; Table II): 4
Pre-emergent Herbicidal, Amaranthus ([7]; Table II): 2
Pre-emergent Herbicidal, Mustard ([8]; Table II): 2

CCCCC(CC)C(=O)OC1=C(c2cc(C)ccc2C)C(=O)CC1 (stereo not shown) [Compound 13]
Miticidal, Egg [1]: A
Post-emergent Herbicidal, Corn [2]: 2
Post-emergent Herbicidal, Tomato [3]: 2
Post-emergent Herbicidal, Cotton [4]: 3
Pre-emergent Herbicidal, Rye ([5]; Table II): 1
Pre-emergent Herbicidal, Crabgrass ([6]; Table II): 1
Pre-emergent Herbicidal, Amaranthus ([7]; Table II): 1
Pre-emergent Herbicidal, Mustard ([8]; Table II): 1

CCCCC(CC)C(=O)OC1=C(c2ccccc2C)C(=O)CC1 (stereo not shown) [Compound 7]
Miticidal, Egg [1]: A
Post-emergent Herbicidal, Corn [2]: 2
Post-emergent Herbicidal, Tomato [3]: 2
Post-emergent Herbicidal, Cotton [4]: 2
Pre-emergent Herbicidal, Rye ([5]; Table II): 5
Pre-emergent Herbicidal, Crabgrass ([6]; Table II): 3
Pre-emergent Herbicidal, Amaranthus ([7]; Table II): 3
Pre-emergent Herbicidal, Mustard ([8]; Table II): 1

Cc1ccccc1C1=C(OC(=O)C(C)(C)C)C2CCCCC2C1=O (stereo not shown) [Compound 22]
Miticidal, Egg [1]: A
Post-emergent Herbicidal, Corn [2]: 5
Post-emergent Herbicidal, Tomato [3]: 1
Post-emergent Herbicidal, Cotton [4]: 3
Pre-emergent Herbicidal, Rye ([5]; Table II): 5
Pre-emergent Herbicidal, Crabgrass ([6]; Table II): 3
Pre-emergent Herbicidal, Amaranthus ([7]; Table II): 2
Pre-emergent Herbicidal, Mustard ([8]; Table II): 3

CCCCC(CC)C(=O)OC1=C(c2ccccc2C)C(=O)CC1 (stereo not shown) [drawing 21]
LC50 [1]: 125 µg/mL (≈ 398 µM)
Post Emergent Herbicidal, Corn [2]: 2
Post Emergent Herbicidal, Tomato [3]: 2
Post Emergent Herbicidal, Cotton [4]: 2
Pre-emergent Herbicidal, Rye ([5]; Table III): 5
Pre-emergent Herbicidal, Crabgrass ([6]; Table III): 3
Pre-emergent Herbicidal, Amaranthus ([7]; Table III): 3
Pre-emergent Herbicidal, Mustard ([8]; Table III): 1

Cc1ccccc1C1=C(OC(=O)C(C)C)C2CCCCC2C1=O (stereo not shown) [Compound 20]
Miticidal, Egg [1]: A
Post-emergent Herbicidal, Corn [2]: 5
Post-emergent Herbicidal, Tomato [3]: 1
Post-emergent Herbicidal, Cotton [4]: 3
Pre-emergent Herbicidal, Rye ([5]; Table II): 4
Pre-emergent Herbicidal, Crabgrass ([6]; Table II): 3
Pre-emergent Herbicidal, Amaranthus ([7]; Table II): 3
Pre-emergent Herbicidal, Mustard ([8]; Table II): 3

CCCCCCCCCCCCCCCC(=O)OC1=C(c2cc(C)ccc2C)C(=O)C2CCCCC12 (stereo not shown) [Compound 33]
Miticidal, Egg [1]: A
Post-emergent Herbicidal, Corn [2]: 1
Post-emergent Herbicidal, Tomato [3]: 1
Post-emergent Herbicidal, Cotton [4]: 1
Pre-emergent Herbicidal, Rye ([5]; Table II): 1
Pre-emergent Herbicidal, Crabgrass ([6]; Table II): 1
Pre-emergent Herbicidal, Amaranthus ([7]; Table II): 1
Pre-emergent Herbicidal, Mustard ([8]; Table II): 1

CC(=O)OC1=C(c2ccc(C)cc2C)C(=O)C2CCCCC12 (stereo not shown) [Compound 25]
Miticidal, Egg [1]: A
Post-emergent Herbicidal, Corn [2]: 3
Post-emergent Herbicidal, Tomato [3]: 2
Post-emergent Herbicidal, Cotton [4]: 3
Pre-emergent Herbicidal, Rye ([5]; Table II): 5
Pre-emergent Herbicidal, Crabgrass ([6]; Table II): 5
Pre-emergent Herbicidal, Amaranthus ([7]; Table II): 3
Pre-emergent Herbicidal, Mustard ([8]; Table II): 3

CCCCC(CC)C(=O)OC1=C(c2cc(C)ccc2C)C(=O)C(C)C1 (stereo not shown) [Compound 17]
Miticidal, Egg [1]: A
Post-emergent Herbicidal, Corn [2]: 3
Post-emergent Herbicidal, Tomato [3]: 1
Post-emergent Herbicidal, Cotton [4]: 3
Pre-emergent Herbicidal, Rye ([5]; Table II): 3
Pre-emergent Herbicidal, Crabgrass ([6]; Table II): 1
Pre-emergent Herbicidal, Amaranthus ([7]; Table II): 3
Pre-emergent Herbicidal, Mustard ([8]; Table II): 1

CCCCC(CC)C(=O)OC1=C(c2ccccc2C)C(=O)C2CCCCC12 (stereo not shown) [drawing 22]
LC50 [1]: 5 µg/mL (≈ 13.6 µM)
Post Emergent Herbicidal, Corn [2]: 5
Post Emergent Herbicidal, Tomato [3]: 1
Post Emergent Herbicidal, Cotton [4]: 2
Pre-emergent Herbicidal, Rye ([5]; Table III): 3
Pre-emergent Herbicidal, Crabgrass ([6]; Table III): 2
Pre-emergent Herbicidal, Amaranthus ([7]; Table III): 2
Pre-emergent Herbicidal, Mustard ([8]; Table III): 1

CCCCCCCCCCCCCCCC(=O)OC1=C(c2cc(C)ccc2C)C(=O)CC1 [Compound 14]
Miticidal, Egg [1]: A
Post-emergent Herbicidal, Corn [2]: 1
Post-emergent Herbicidal, Tomato [3]: 3
Post-emergent Herbicidal, Cotton [4]: 3
Pre-emergent Herbicidal, Rye ([5]; Table II): 4
Pre-emergent Herbicidal, Crabgrass ([6]; Table II): 1
Pre-emergent Herbicidal, Amaranthus ([7]; Table II): 1
Pre-emergent Herbicidal, Mustard ([8]; Table II): 1
